One assay concerns Caov-3 cells. In words: Caov-3 cellular viability assay (ATP-Lite, 72 h). In kind it is cell-based. The following applies: Homo sapiens, ATP-Lite luminescence, % viability relative to DMSO. Summed up: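 IC50 values come from concentration-response fits of luminescent ATP content (ATP-Lite One Step), normalised as % viability versus DMSO. Compound exposure was 72 h at 37 °C in RPMI-1640/10% FBS with 0.1% final DMSO. Wells held 10000 cells each.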

The target in assay [1] is T1, recombinant METTL3/METTL14 complex (Homo sapiens, UniProt Q86U44).
T1 construct: purchased Active Motif 311970; host or cells: Sf9 cells
T1 sequence (Q86U44 whole entry): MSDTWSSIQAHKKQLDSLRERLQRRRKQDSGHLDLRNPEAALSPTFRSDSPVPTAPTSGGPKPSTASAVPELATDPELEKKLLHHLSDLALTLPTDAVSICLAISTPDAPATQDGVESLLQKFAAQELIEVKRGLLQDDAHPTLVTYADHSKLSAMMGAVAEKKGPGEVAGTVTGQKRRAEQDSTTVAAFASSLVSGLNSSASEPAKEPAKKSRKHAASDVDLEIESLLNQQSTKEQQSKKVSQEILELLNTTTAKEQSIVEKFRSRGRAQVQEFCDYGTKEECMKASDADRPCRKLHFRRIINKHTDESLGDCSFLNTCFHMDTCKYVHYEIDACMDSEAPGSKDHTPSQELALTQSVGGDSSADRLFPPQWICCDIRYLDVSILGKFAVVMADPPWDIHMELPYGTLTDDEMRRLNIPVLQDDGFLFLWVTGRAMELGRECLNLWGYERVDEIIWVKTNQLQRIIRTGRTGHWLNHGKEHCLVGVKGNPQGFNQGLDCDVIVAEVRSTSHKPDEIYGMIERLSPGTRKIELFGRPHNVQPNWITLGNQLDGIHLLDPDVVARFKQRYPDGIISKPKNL
T1 sequence (Q9HCE5 whole entry partner): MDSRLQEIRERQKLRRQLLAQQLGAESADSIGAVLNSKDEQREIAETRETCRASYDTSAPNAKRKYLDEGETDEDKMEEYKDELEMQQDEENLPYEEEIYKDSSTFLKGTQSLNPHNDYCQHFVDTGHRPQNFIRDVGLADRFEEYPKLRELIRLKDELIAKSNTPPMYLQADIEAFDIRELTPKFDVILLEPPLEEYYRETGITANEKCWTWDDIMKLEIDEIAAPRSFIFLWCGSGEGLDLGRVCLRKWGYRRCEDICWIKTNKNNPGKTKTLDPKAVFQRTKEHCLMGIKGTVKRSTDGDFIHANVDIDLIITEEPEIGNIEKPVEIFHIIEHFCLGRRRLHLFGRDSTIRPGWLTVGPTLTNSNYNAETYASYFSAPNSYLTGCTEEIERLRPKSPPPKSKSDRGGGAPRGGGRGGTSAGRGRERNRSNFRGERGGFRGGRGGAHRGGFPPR
The assay is described as follows: METTL3/14 Scintillation Proximity Assay (SPA), RNA methyltransferase activity. It is filed as biochemical. The following applies: 5.31 nM METTL3/14 complex, 250 nM RNA substrate, 1 μM 3H-SAM, 90 min; for compounds marked * best of the two separated forms. On the technique in general: In a scintillation proximity assay essentially only radioactivity close to the scintillant gives light.

The next assay relates to Kasumi-1 cells. In words: Kasumi-1 cellular viability assay (ATP-Lite, 72 h). In kind it is cell-based. The following applies: Homo sapiens, ATP-Lite luminescence, % viability relative to DMSO. The method, boiled down:
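Viability was read by ATP-Lite One Step luminescence after 72 h compound treatment at 37 °C/5% CO2, normalised to DMSO control, with IC50 fitted from concentration-response. Cells were Kasumi-1 (AML FAB M2) at 15000 per well in RPMI-1640/10% FBS, 0.1% DMSO final.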

The values below come from patent US20250002475A1 (EPICS THERAPEUTICS, priority 2023, published 2025).

The term IC50 denotes the concentration at which inhibition is half-maximal. In the case of `COc1cc(-c2cn(Cc3ccc(N4CCC[C@@H](NCC5CCC5)C4)nn3)nn2)c2cncn2c1` [Compound 013, (R)-N-(cyclobutylmethyl)-1-(6-((4-(6-methoxyimidazo[1,5-a]pyridin-8-yl)-1H-1,2,3-triazol-1-yl)methyl)pyridazin-3-yl)piperidin-3-amine], the IC50 in the assay on Caov-3 cells is at most 500 nM; in assay [1], at most 50 nM; in the assay on Kasumi-1 cells, 500 to 5000 nM.

As for `CN(C)c1cncc(-c2cn(Cc3ccc(N4CCC[C@@H](NCC5CCC5)C4)cn3)nn2)c1` [Compound 139, (R)-5-(1-((5-(3-((cyclobutylmethyl)amino)piperidin-1-yl)pyridin-2-yl)methyl)-1H-1,2,3-triazol-4-yl)-N,N-dimethylpyridin-3-amine], the IC50 in the assay on Caov-3 cells was at most 500 nM; in assay [1], at most 50 nM; with Kasumi-1 cells it was at most 500 nM.

`CC(c1nnc(-c2cncc(N3CCCC3)n2)s1)n1ccc(N2CCC[C@@H](NCC3CC3)C2)cc1=O` (stereo partly drawn) [Compound 228, 4-((R)-3-((cyclopropylmethyl)amino)piperidin-1-yl)-1-(1-(5-(6-(pyrrolidin-1-yl)pyrazin-2-yl)-1,3,4-thiadiazol-2-yl)ethyl)pyridin-2(1H)-one]: the IC50 is at most 500 nM with Caov-3 cells, at most 50 nM in assay [1] and at most 500 nM with Kasumi-1 cells.

On to `O=C(NCc1ccc(N2CCC[C@@H](NCC3CCC3)C2)cn1)c1cc(=O)n2ccccc2n1` [Compound 060, (R)-N-((5-(3-((cyclobutylmethyl)amino)piperidin-1-yl)pyridin-2-yl)methyl)-4-oxo-4H-pyrido[1,2-a]pyrimidine-2-carboxamide], for which the results for the IC50 (in the assay on Caov-3 cells; in assay [1]; with Kasumi-1 cells) were over 5000 nM, at most 50 nM and over 5000 nM, respectively.

For the compound `CC(C(=O)Nc1cncc(N2CCCC2)c1)n1ccc(N2CCC[C@@H](NCC3CCC3)C2)cc1=O` (stereo partly drawn) [Compound 208, 2-(4-((R)-3-((cyclobutylmethyl)amino)piperidin-1-yl)-2-oxopyridin-1(2H)-yl)-N-(5-(pyrrolidin-1-yl)pyridin-3-yl)propanamide], the IC50 with Caov-3 cells is 500 to 5000 nM; in assay [1], at most 50 nM; with Kasumi-1 cells, 500 to 5000 nM.

With `COc1cc(-c2cn(C(C)n3ccc(N4CCC[C@@H](NCC5CCC5)C4)cc3=O)nn2)c2cn[nH]c2c1` (mixture of isomers) [Compound 050, 4-((R)-3-((cyclobutylmethyl)amino)piperidin-1-yl)-1-(1-(4-(6-methoxy-1H-indazol-4-yl)-1H-1,2,3-triazol-1-yl)ethyl)pyridin-2(1H)-one], the IC50 with Caov-3 cells is at most 500 nM; in assay [1] it was at most 50 nM; with Kasumi-1 cells, at most 500 nM.

For `c1ncc(C2CC2)cc1-c1nnc(C2(c3ccc(N4CCC[C@@H](NCC5CC5)C4)cn3)COC2)o1` [Compound 344, (R)-N-(cyclopropylmethyl)-1-(6-(3-(5-(5-cyclopropylpyridin-3-yl)-1,3,4-oxadiazol-2-yl)oxetan-3-yl)pyridin-3-yl)piperidin-3-amine], the IC50 was over 5000 nM in the assay on Caov-3 cells, 50 to 500 nM in assay [1] and 500 to 5000 nM in the assay with Kasumi-1 cells.

`O=C(Nc1cncc(N2CC3CC3C2)n1)C1(c2ccc(N3CCC[C@@H](NCC4CCC4)C3)cn2)COC1` (stereo partly drawn) [Compound 270, N-(6-(3-azabicyclo[3.1.0]hexan-3-yl)pyrazin-2-yl)-3-(5-((R)-3-((cyclobutylmethyl)amino)piperidin-1-yl)pyridin-2-yl)oxetane-3-carboxamide]: the half-maximal inhibitory concentration (IC50) is at most 500 nM in the assay with Caov-3 cells, at most 50 nM in assay [1] and at most 500 nM with Kasumi-1 cells.

For the compound `CC(n1cnc(-c2cc(N(C)C)cnn2)c1)n1ccc(N2CCC[C@@H](NCC3CC3)C2)cc1=O` (single isomer, unassigned) [Compound 243], the IC50 in the assay on Caov-3 cells is 500 to 5000 nM; in assay [1], at most 50 nM; with Kasumi-1 cells, 500 to 5000 nM.

`CC(c1cnc(-c2cncc(N3CCCC3)n2)o1)n1ccc(N2CCC[C@@H](NCC3CC3)C2)cc1=O` (single isomer, unassigned) [Compound 242]: the IC50 in the assay with Caov-3 cells is at most 500 nM; in assay [1], at most 50 nM; in the assay with Kasumi-1 cells, at most 500 nM.

`c1ncc(N2CCCC2)cc1-c1cn(C2(c3ccc(N4CCC[C@@H](NCC5CC5)C4)nc3)COC2)nn1` [Compound 223, (R)-N-(cyclopropylmethyl)-1-(5-(3-(4-(5-(pyrrolidin-1-yl)pyridin-3-yl)-1H-1,2,3-triazol-1-yl)oxetan-3-yl)pyridin-2-yl)piperidin-3-amine]: the IC50 with Caov-3 cells was at most 500 nM; in assay [1] it was at most 50 nM; in the assay on Kasumi-1 cells it was at most 500 nM.

In the case of `c1ncc(C2CC2)cc1-c1cn(C2(c3ccc(N4CCC[C@@H](NCC5CCC5)C4)cn3)COC2)nn1` [Compound 306, (R)-N-(cyclobutylmethyl)-1-(6-(3-(4-(5-cyclopropylpyridin-3-yl)-1H-1,2,3-triazol-1-yl)oxetan-3-yl)pyridin-3-yl)piperidin-3-amine], the IC50 with Caov-3 cells is at most 500 nM; in assay [1], at most 50 nM; with Kasumi-1 cells, at most 500 nM.

In the case of `CN(C)c1cncc(-c2cn(Cc3ccc(N4CCC[C@@H](NCC5CC5)C4)nn3)nn2)c1` [Compound 183, (R)-5-(1-((6-(3-((cyclopropylmethyl)amino)piperidin-1-yl)pyridazin-3-yl)methyl)-1H-1,2,3-triazol-4-yl)-N,N-dimethylpyridin-3-amine], the IC50 in the assay on Caov-3 cells was at most 500 nM; in assay [1] it was at most 50 nM; with Kasumi-1 cells, 500 to 5000 nM.

Turning to `COc1cc(-c2cn(Cc3ccc(N4CCC[C@@H](NCC5CCC5)C4)cn3)nn2)c2cn[nH]c2c1` [Compound 042, (R)-N-(cyclobutylmethyl)-1-(6-((4-(6-methoxy-1H-indazol-4-yl)-1H-1,2,3-triazol-1-yl)methyl)pyridin-3-yl)piperidin-3-amine], the IC50 with Caov-3 cells was at most 500 nM; in assay [1], at most 50 nM; with Kasumi-1 cells it was at most 500 nM.

Consider `CC1(CN[C@@H]2CCCN(c3ccc(C4(n5cc(-c6cncc(C7CC7)c6)nn5)COC4)nc3)C2)CC1` [Compound 333, (R)-1-(6-(3-(4-(5-cyclopropylpyridin-3-yl)-1H-1,2,3-triazol-1-yl)oxetan-3-yl)pyridin-3-yl)-N-((1-methylcyclopropyl)methyl)piperidin-3-amine], for which the IC50 is at most 500 nM in the assay on Caov-3 cells, at most 50 nM in assay [1] and at most 500 nM with Kasumi-1 cells.

For `c1cc(C2(n3cc(-c4cncc(N5CCCC5)n4)nn3)COC2)ncc1N1CCCC(NCC2CCC2)C1` (stereo in doubt) [Compound 290, (R)-N-(cyclobutylmethyl)-1-(6-(3-(4-(6-(pyrrolidin-1-yl)pyrazin-2-yl)-1H-1,2,3-triazol-1-yl)oxetan-3-yl)pyridin-3-yl)piperidin-3-amine], the IC50 is at most 500 nM in the assay on Caov-3 cells, at most 50 nM in assay [1] and at most 500 nM with Kasumi-1 cells.

Take `COc1cncc(-c2cn(C(C)c3ccc(N4CCC[C@@H](NCC5CCC5)C4)nc3F)nn2)c1` (single isomer, unassigned) [Compound 138]: the IC50 is 500 to 5000 nM in the assay with Caov-3 cells, at most 50 nM in assay [1] and 500 to 5000 nM in the assay on Kasumi-1 cells.

`CCN(C)c1cncc(-c2cn(C(C)n3ccc(N4CCC[C@@H](NCC5CC5)C4)cc3=O)nn2)c1` (stereo partly drawn) [Compound 203]: the IC50 with Caov-3 cells is at most 500 nM; in assay [1] it was at most 50 nM; in the assay with Kasumi-1 cells it was at most 500 nM.

Consider `CC(n1cc(-c2cncc(N3CC(F)(F)C3)c2)nn1)n1ccc(N2CCC[C@@H](NCC3CC3)C2)cc1=O` (stereo partly drawn) [Compound 197], for which the IC50 was 500 to 5000 nM in the assay on Caov-3 cells, at most 50 nM in assay [1] and 500 to 5000 nM in the assay on Kasumi-1 cells.

For the compound `COC1CN(c2cncc(-c3cn(C(C)n4ccc(N5CCC[C@@H](NCC6CCC6)C5)cc4=O)nn3)c2)C1` (single isomer, unassigned) [Compound 199], the IC50 in the assay with Caov-3 cells was at most 500 nM; in assay [1], at most 50 nM; with Kasumi-1 cells, at most 500 nM.

Turning to `CC(c1ccc(N2CCC[C@@H](NCC3CC3)C2)cn1)n1cnc(-c2cncc(N3CCCC3)n2)c1` (single isomer, unassigned) [Compound 355], the results for the IC50 (in the assay on Caov-3 cells; in assay [1]; with Kasumi-1 cells) were at most 500 nM, at most 50 nM and at most 500 nM, respectively.

For `CC(c1ccc(N2CCC[C@@H](NCC3CC3)C2)cn1)n1cc(-c2cncc(C3CC3)c2)nn1` (single isomer, unassigned) [Compound 357], the results for the IC50 (in the assay on Caov-3 cells; in assay [1]; in the assay with Kasumi-1 cells) were at most 500 nM, at most 50 nM and at most 500 nM, respectively.

Consider `c1ncc(C2CC2)cc1-c1cn(C2(c3ccc(N4CCC[C@@H](NCC5CC5)C4)cn3)CNC2)nn1` [Compound 349, (R)-N-(cyclopropylmethyl)-1-(6-(3-(4-(5-cyclopropylpyridin-3-yl)-1H-1,2,3-triazol-1-yl)azetidin-3-yl)pyridin-3-yl)piperidin-3-amine], for which the figures for the IC50 (in the assay with Caov-3 cells; in assay [1]; with Kasumi-1 cells) were 500 to 5000 nM, at most 50 nM and over 5000 nM, respectively.

For the compound `CC(c1cnn(-c2cncc(N(C)C)n2)c1)n1ccc(N2CCC[C@@H](NCC3CC3)C2)cc1=O` (single isomer, unassigned) [Compound 225], the half-maximal inhibitory concentration (IC50) with Caov-3 cells was at most 500 nM; in assay [1], at most 50 nM; with Kasumi-1 cells, at most 500 nM.

For `CN(C)c1cncc(-c2cn(Cn3ccc(N4CCC[C@@H](NCC5CC5)C4)cc3=O)nn2)c1` [Compound 174, (R)-4-(3-((cyclopropylmethyl)amino)piperidin-1-yl)-1-((4-(5-(dimethylamino)pyridin-3-yl)-1H-1,2,3-triazol-1-yl)methyl)pyridin-2(1H)-one], the results for the IC50 (with Caov-3 cells; in assay [1]; in the assay on Kasumi-1 cells) were at most 500 nM, at most 50 nM and at most 500 nM, respectively.
